Measured values: PubChem BioAssay AID434951 (Broad Institute, 2010)
Calls of active or inactive are those of the source.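 How the source made its calls: active means a fitted half-maximal concentration EC50 for the rise in nuclear signal no higher than ten times the top dose tested; inconclusive means flat fit with activity between 30% and 70%, or unusable fit; inactive means EC50 beyond ten times the top dose.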

Biological target: Hypoxia-inducible factor 1-alpha (Homo sapiens) (UniProt Q16665)
Assay: activators of HIF1alpha nuclear accumulation, confirmation, imaging, fluorescence, U2OS GFP-HIF1alpha (AID 434951)
Settings: U2OS GFP-HIF1alpha nuclear intensity, high-content imaging

Hypoxia-inducible factor 1-alpha (Homo sapiens), sequence (Q16665 whole entry, looked up): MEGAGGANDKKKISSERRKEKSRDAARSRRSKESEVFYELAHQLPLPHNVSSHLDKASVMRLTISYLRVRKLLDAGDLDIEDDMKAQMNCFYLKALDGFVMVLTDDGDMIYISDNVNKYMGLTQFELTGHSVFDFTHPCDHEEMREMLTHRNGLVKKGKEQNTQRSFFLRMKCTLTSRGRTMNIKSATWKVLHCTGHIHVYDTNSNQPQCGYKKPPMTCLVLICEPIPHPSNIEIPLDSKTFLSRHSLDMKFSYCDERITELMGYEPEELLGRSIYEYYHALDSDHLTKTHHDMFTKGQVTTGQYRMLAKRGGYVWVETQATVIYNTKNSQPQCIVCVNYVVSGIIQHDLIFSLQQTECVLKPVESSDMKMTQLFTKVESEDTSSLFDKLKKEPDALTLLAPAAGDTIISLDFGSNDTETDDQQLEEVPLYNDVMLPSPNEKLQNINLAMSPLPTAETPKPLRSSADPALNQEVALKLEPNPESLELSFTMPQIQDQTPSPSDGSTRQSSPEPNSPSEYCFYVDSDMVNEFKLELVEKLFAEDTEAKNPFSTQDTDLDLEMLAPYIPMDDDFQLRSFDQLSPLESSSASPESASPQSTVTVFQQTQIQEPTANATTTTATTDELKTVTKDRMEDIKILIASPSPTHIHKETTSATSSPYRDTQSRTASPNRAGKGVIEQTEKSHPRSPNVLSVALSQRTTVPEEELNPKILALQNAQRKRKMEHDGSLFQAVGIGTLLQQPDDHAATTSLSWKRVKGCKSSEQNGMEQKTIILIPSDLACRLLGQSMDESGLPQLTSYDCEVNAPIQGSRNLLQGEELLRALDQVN

| Compound | EC50 |
| --- | --- |
| CC1CCN(Cc2c(C(=O)N/N=C/c3ccccc3O)nnn2-c2nonc2N)CC1 | > 35 µM (inactive) |
| NC(=O)CSc1nnc2ccc(-c3ccc(Cl)cc3)nn12 | > 35 µM (inactive) |
| Cc1nc(C)c(C(=O)N/N=C/c2cc(Br)ccc2O)s1 | 7.18 µM |
| Cc1ccc(Nc2c3c(nc4ccccc24)CCC3)cc1 | > 35 µM (inactive) |
| Cc1cc(Br)cc(/C=N/NC(=O)c2ccc3c(c2)OCO3)c1O | 6.26 µM |
| CCN(CC)CCNCc1nc2ccccc2c(=O)n1-c1ccc(F)cc1 | > 35 µM (inactive) |
| Oc1c(C(Nc2ccccn2)c2ccccn2)ccc2cccnc12 (stereo unspecified) | 3.98 µM |
| Cc1cc(Oc2ccccc2)nc(N2CCOCC2)n1 | > 35 µM (inactive) |
| O=C(c1ccc(Cl)cc1Cl)N1CCN(c2ccc(N3CCOCC3)nn2)CC1 | > 35 µM (inactive) |
| CCCCNC(=S)Nc1ccc2cn[nH]c2c1 | > 35 µM (inactive) |
| CC(=O)Nc1c([N+](=O)[O-])cc(C)c(Cl)c1[N+](=O)[O-] | > 35 µM (inactive) |
| CCOC(=O)c1c(S(=O)(=O)N2CCCC2)c(C)n(C)c1C | > 35 µM (inactive) |
| CC(C(=O)N1CCOCC1)N1c2cccc3cccc(c23)S1(=O)=O (stereo unspecified) | > 35 µM (inactive) |
| CCC(=O)c1ccc(N2CCN(C(=O)c3ccc(Br)cc3)CC2)c(F)c1 | > 35 µM (inactive) |
| CN(CC1CCCO1)S(=O)(=O)c1ccc(C(=O)Nc2nccs2)cc1 (stereo unspecified) | > 35 µM (inactive) |
| CC(=O)NC(c1ccc(C)cc1)c1cc(Cl)c2cccnc2c1O (stereo unspecified) | 16.6 µM |
| CCN(CC)c1ccc(/C=N/NC(=O)c2ccco2)c(O)c1 | 6.97 µM |
| COc1ccc(S(=O)(=O)N2CCC(c3cc(-c4cccc5ccccc45)n[nH]3)CC2)cc1 | > 35 µM (inactive) |
| C1CCC2(CC1)C1=C(CCCC1)Nc1nnnn12 | > 35 µM (inactive) |
| Cc1cc(/C=N/n2c(COc3ccccc3)nc3ccccc3c2=O)c(O)c([N+](=O)[O-])c1 | 24.5 µM |
| CC(=O)Nc1ccc(S(=O)(=O)/N=C2\C(=O)c3ccccc3C([O-])=C2n2cc[n+](-c3ccccn3)c2)cc1 | > 35 µM (inactive) |
| CC1=NN2C(=N)/C(=C\c3cc(C)n(Cc4ccccc4)c3C)C(=O)N=C2S1 | > 35 µM (inactive) |
| O=C(NCc1cccs1)C1CC(=O)N(C2CCCC2)C1 (stereo unspecified) | > 35 µM (inactive) |
| O=C(Nc1nc(NC(=O)c2ccco2)n(-c2ccccc2)n1)c1ccccc1 | 13.1 µM |
| Cc1ccc(N=Nc2ccc(O)c(/C=N\NC(=O)c3ccc(N)cc3)c2)cc1C | > 35 µM (inactive) |
| O=C(NCCc1ccccc1)c1cc(-c2ccco2)on1 | 10.8 µM |

| Compound | EC50 |
| --- | --- |
| Cc1cc2ccc3ccccc3c2cc1CN(C)C | > 35 µM (inactive) |
| CCNS(=O)(=O)c1ccc(NC(=O)c2cncc(Br)c2)cc1 | > 35 µM (inactive) |
| Cc1cc(C)c(C(=O)N2CCCC(N3CCN(c4cccc(C(F)(F)F)c4)CC3)C2)o1 (stereo unspecified) | > 35 µM (inactive) |
| CCOc1ccc(NC(=O)CC2C(=O)Nc3ccccc3N2C(=O)c2ccccc2)cc1 (stereo unspecified) | > 35 µM (inactive) |
| CCOc1ccc(NC(=O)C2CCN(S(=O)(=O)c3ccc4c(c3)N(C(C)=O)CCO4)CC2)cc1 | > 35 µM (inactive) |
| Oc1ccccc1/C=N/Nc1nc2ccccc2o1 | 8.18 µM |
| Cc1cc(N/C=C/C(=O)c2ccc(Br)cc2)no1 | > 35 µM (inactive) |
| Cc1cccnc1Nc1nc(-c2ccccn2)cs1 | 3.83 µM |
| O=c1cc(CO)[nH]cc1OCc1ccccc1 | > 35 µM (inactive) |
| [O-]/C(=C(\C(=S)Nc1cccc2ccccc12)[n+]1ccccc1)c1cccs1 | > 35 µM (inactive) |
| C(/CCc1ccccc1)=N\Nc1nc2ccccc2[nH]1 | 35.9 µM |
| Oc1c(CN2CCN(c3ccccc3)CC2)cc(Br)c2cccnc12 | 5.65 µM |
| COc1ccc(NC(=S)c2ccc(N(C)C)cc2)cc1 | > 35 µM (inactive) |
| Nc1nc2nc(-c3cccs3)cc(C(F)(F)F)n2n1 | > 35 µM (inactive) |
| CN(Cc1cccnc1)C(=O)c1cc(COc2ccc3ncccc3c2)on1 | > 35 µM (inactive) |
| ONC=Nc1cccc2nonc12 | > 35 µM (inactive) |
| CC1CN(c2nc3ccccn3c(=O)c2/C=C(\C#N)C(=O)N2CCOCC2)CC(C)O1 (stereo unspecified) | > 35 µM (inactive) |
| CCc1ccc(NC(=O)CSc2ccc(-c3ccccn3)nn2)cc1 | 10.5 µM |
| CCCn1c2ccccc2c2cnn(CC(=O)NC3CCCC(C)C3C)c(=O)c21 (stereo unspecified) | 7.26 µM |
| CCC1Oc2ccccc2N(CC(=O)Nc2ccccc2OC)C1=O (stereo unspecified) | > 35 µM (inactive) |
| O=C(CCCCCN1C(=O)c2ccccc2C1=O)Nc1ccc2c(c1)OCCO2 | > 35 µM (inactive) |
| CCOC(=O)Cc1nn(CC)c(=O)c2ccccc12 | > 35 µM (inactive) |
| C/C(=N\NC(=O)Cc1ccc(Br)cc1)c1cccnc1 | > 35 µM (inactive) |
| O=C(N/N=C\c1c(O)ccc2ccccc12)c1ccc(Cn2cccn2)o1 | 5.3 µM |
| S=C(Nc1ccc(Cl)cc1)Nc1ccc2cn[nH]c2c1 | > 35 µM (inactive) |
| Cc1[nH]n(-c2ccccc2)c(=O)c1N=Nc1ccc2c(c1)OCCO2 | > 35 µM (inactive) |

| Compound | EC50 |
| --- | --- |
| CN(CC(=O)Nc1ccc(S(=O)(=O)N2CCCC2)cc1)CC(=O)Nc1cccc(F)c1 | > 35 µM (inactive) |
| CCC(=O)NC(=S)Nc1ccc(NC(=O)c2cccc([N+](=O)[O-])c2C)cc1 | > 35 µM (inactive) |
| Cc1ccc(C(=O)CSc2cc(C)[nH]c(=O)n2)cc1 | > 35 µM (inactive) |
| CC(C)COc1cccc(C(=O)NNC(=O)C2COc3ccccc3O2)c1 (stereo unspecified) | > 35 µM (inactive) |
| CCN(CC)c1ccc(NC(=O)CSc2nc3nc(C)cc(C)c3c(=O)[nH]2)cc1 | > 35 µM (inactive) |
| COc1ccc(C(NC(=O)c2cccnc2)c2cc(Cl)c3cccnc3c2O)cc1OC (stereo unspecified) | 7.09 µM |
| CCCC(=O)NC(c1ccc(N(C)C)cc1)c1ccc2cccnc2c1O (stereo unspecified) | 6.62 µM |
| COc1cccc2sc(Nc3nc(-c4ccccn4)cs3)nc12 | 6.13 µM |
| CCC1CCCCN1CCCNC(=O)C1CCN(c2nnc(-n3cccc3)s2)CC1 (stereo unspecified) | > 35 µM (inactive) |
| Oc1c(C(Nc2cccc(C(F)(F)F)c2)c2ccncc2)ccc2cccnc12 (stereo unspecified) | 6.49 µM |
| Cc1cc(NC(=O)CSc2nc3c(c(=O)n2-c2ccc(Cl)cc2)SCC3)no1 | > 35 µM (inactive) |
| CCC1CCc2sc(C(=O)O)cc2C1 (stereo unspecified) | > 35 µM (inactive) |
| Cc1cc(NC(=O)C2CC(=O)N(c3cccc(C)c3C)C2)no1 (stereo unspecified) | 33.3 µM |
| Cc1ccccc1CN1C(=O)CSc2ccc(C(=O)N3CCOCC3)cc21 | > 35 µM (inactive) |
| CC1CN(S(=O)(=O)c2cccc(C(=O)N(CCc3ccccc3)Cc3ccccc3)c2)CC(C)O1 (stereo unspecified) | > 35 µM (inactive) |
| COc1cccc(CNC(=O)CCCn2c(=S)[nH]c3cc4c(cc3c2=O)OCO4)c1 | > 35 µM (inactive) |
| Cc1nnc(N/N=C/c2ccccn2)[nH]c1=O | 5.75 µM |
| CCCCC(=O)Nc1ccc(NC(=O)CC)cc1OC | > 35 µM (inactive) |
| Cc1c(/C=N/NC(N)=O)c2ccccn2c1C(=O)c1ccncc1 | > 35 µM (inactive) |
| COc1ccc(CCNC(=O)c2cc(-c3cccs3)on2)cc1OC | 7.39 µM |
| COc1cc(C(=O)Nc2sc(C)c(C)c2C(=O)O)cc(OC)c1OC | > 35 µM (inactive) |
| CCN1CN(CCc2ccccc2)CNC1=S | > 35 µM (inactive) |
| Cc1ccc(C)c(SCC(=O)OCC(=O)N2CC(C)OC(C)C2)c1 (stereo unspecified) | > 35 µM (inactive) |
| NS(=O)(=O)c1ccc(CNC(=O)c2csc3c2CCCC3)cc1 | > 35 µM (inactive) |
